The source of these data is US11773078B2, “Furin inhibitors” (Glaxosmithkline Intellectual Property Development Limited, priority 2018, dated 2023).

In assay [1] the target is T1, Furin (108-574-Tev-Flag-His) enzyme (Homo sapiens, UniProt P09958).
T1 construct: Furin (108-574-Tev-Flag-His) enzyme was expressed and purified from CHO cells; TEV cleavage site (C); FLAG (C); His (C); made in house; host or cells: CHO cells
As to the kind of experiment: Furin enzyme assay. It is filed as biochemical. The method, boiled down:
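CHO-expressed, purified furin construct at 40 pM in 100 mM HEPES pH7.5, 1 mM CaCl2, 0.005% Triton X-100. Eleven-point 1:3 series, 0.00017–10 μM final, incubated 2 h at room temperature and read on Envision. pXC50 from four-parameter fit.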

Assay [2] addresses T2, furin (endogenous protease) in U20S cells (Homo sapiens, UniProt P09958).
T2 construct: the endogenous protease cleaves GFP; endogenous in cells; host or cells: U2OS cells transduced with a BacMam reporter
As to the kind of experiment: Furin cell-based assay (image-based, Golgi-targeted GFP with BMP10 furin/PCSK cleavage site).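 Also: Read-out is mean GFP fluorescence of Golgi puncta per cell by high-content imaging, retained when furin inhibited, over an eleven-point 0.00017–10 µM series, four-parameter fit.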 To be noted: 24-hour incubation, read-out: furin golgi cell pXC50 (converted).
Method: This assay uses an image-based platform to evaluate the intracellular activity of compounds of the invention. Reactions were performed in black 384-well, tissue culture-treated, clear bottom plates (Greiner). Compounds under analysis were dissolved in DMSO (1.0 mM) and serially diluted 1 to 3 with DMSO through eleven dilutions. This creates a final compound concentration range from 0.00017 to 10 μM, and 0.1 μL of each concentration was transferred to the corresponding well of the assay plate. Assays were initiated by the addition of U20S cells simultaneously transduced with a BacMam-delivered construct containing a Golgi-targeting sequence followed by a 12-amino acid furin/PCSK cleavage site from Bone Morphogenic Protein 10 (BMP10) and then GFP at the C terminus. […] Briefly, frozen cells are thawed in assay media (Dulbecco's Modified Eagles Medium Nutritional Mixture F-12 (Ham) without phenol red containing 5% FBS) and diluted to deliver 6000 cells/well (50 μL) to the plate using a Multidrop Combi (Thermo).
After a 24-hour incubation period at 37° C., the cells are stained with Cell Mask Deep Red, fixed in paraformaldehyde and the nuclei stained using Ho33342. The Golgi-targeted GFP forms bright punctate clusters within the cell. In the absence of a furin inhibitor, the endogenous protease cleaves GFP from its N-acetylgalactosaminyltransferase-2 Golgi tether, releasing GFP into the Golgi lumen where fluorescence is diluted below the threshold of assay sensitivity. […] Cellular GFP intensity is determined by image-based acquisition (Incell 2200, Perkin Elmer) at 40× magnification with 4 fields measured per well. Multi-scale tophat segmentation is used to identify the GFP-tagged puncta and to quantitate the average fluorescence of all puncta on a per cell basis. Cellular toxicity is determined in parallel.
Data were analyzed using AbaseXE 7.3, utilizing a four-parameter curve fit equation. The following values were used to define limits and/or constraints for each of the four parameters: • Minimum—limit −10 to 10 • Maximum—90 to 110 • Slope—limit 0.5 to 2.0 • pXC50 confidence interval—10
Raw counts obtained from the respective plate reader (Perkin Elmer) were captured for data analysis. Curves were generated using the equation: Y=A+[(B−A)/(1+(10^C/x)^D)] • where: A=minimum response • B=maximum response • C=log 10*XC50 • D=slope factor • x=log 10 compound concentration [M]
The results were recorded as pXC50 values (−C in the above equation)

T1 sequence (P09958 108-574): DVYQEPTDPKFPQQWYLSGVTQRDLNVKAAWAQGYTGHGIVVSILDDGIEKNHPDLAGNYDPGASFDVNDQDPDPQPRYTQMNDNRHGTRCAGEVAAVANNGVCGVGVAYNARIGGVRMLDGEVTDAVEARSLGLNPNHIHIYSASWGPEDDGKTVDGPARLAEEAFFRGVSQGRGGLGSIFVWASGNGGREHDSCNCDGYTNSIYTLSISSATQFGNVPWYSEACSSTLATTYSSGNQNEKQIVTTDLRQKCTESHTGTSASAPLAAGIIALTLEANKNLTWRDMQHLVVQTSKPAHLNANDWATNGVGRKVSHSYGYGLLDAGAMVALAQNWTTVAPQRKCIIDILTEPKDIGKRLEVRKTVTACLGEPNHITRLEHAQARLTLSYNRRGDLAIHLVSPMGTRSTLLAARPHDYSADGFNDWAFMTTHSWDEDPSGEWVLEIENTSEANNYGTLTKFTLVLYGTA
T2 sequence (P09958 108-794): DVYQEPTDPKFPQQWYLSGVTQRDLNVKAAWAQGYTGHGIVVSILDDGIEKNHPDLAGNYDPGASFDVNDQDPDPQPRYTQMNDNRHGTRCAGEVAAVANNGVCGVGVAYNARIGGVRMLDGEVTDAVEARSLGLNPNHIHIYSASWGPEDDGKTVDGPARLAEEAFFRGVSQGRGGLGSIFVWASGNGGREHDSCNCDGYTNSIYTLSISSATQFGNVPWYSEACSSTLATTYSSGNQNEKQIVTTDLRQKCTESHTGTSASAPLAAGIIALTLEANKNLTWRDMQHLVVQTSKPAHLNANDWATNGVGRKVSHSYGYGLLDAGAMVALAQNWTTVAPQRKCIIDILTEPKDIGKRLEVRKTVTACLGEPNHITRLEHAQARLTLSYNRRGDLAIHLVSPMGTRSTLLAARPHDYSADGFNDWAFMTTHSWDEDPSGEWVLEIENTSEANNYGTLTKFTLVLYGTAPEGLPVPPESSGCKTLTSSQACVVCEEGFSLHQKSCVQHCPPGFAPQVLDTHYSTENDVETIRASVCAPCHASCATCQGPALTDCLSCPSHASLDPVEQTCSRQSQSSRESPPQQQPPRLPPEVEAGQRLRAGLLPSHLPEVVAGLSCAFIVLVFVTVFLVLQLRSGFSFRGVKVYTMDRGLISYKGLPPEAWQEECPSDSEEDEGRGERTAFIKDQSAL

As for `CCC(CCN1CCN(c2ccc(Oc3cc(CN4CCC(CNC(C)=O)CC4)cc(-c4cc(Cl)cc(Cl)c4)n3)cn2)CC1)C(=O)O` (centres unmarked) [Example 188, 4-(4-(5-((4-((4-(acetamidomethyl)piperidin-1-yl)methyl)-6-(3,5-dichlorophenyl)pyridin-2-yl)oxy)pyridin-2-yl)piperazin-1-yl)-2-ethylbutanoic acid], in assay [1], the “furin enzyme pIC50” value stood at 8.8. Besides, in assay [2], the EC50 is 12.6 nM.
As to `CC(=O)NCC1CCN(Cc2cc(Oc3ccc(N4CCN(CC(C)(C)C(=O)O)CC4)nc3)nc(-c3cc(Cl)cc(Cl)c3)c2)CC1` [Example 189, 3-(4-(5-((4-((4-(acetamidomethyl)piperidin-1-yl)methyl)-6-(3,5-dichlorophenyl)pyridin-2-yl)oxy)pyridin-2-yl)piperazin-1-yl)-2,2-dimethylpropanoic acid], the “furin enzyme pIC50” value in assay [1] was 8.7. Besides, the EC50 in assay [2] was 31.6 nM.
In the case of `CC(=O)NCC1CCN(Cc2cc(Oc3ccc(N4CCCN(CCC(=O)O)CC4)nc3)nc(-c3cc(Cl)cc(Cl)c3)c2)CC1` [Example 190, 3-(4-(5-((4-((4-(Acetamidomethyl)piperidin-1-yl)methyl)-6-(3,5-dichlorophenyl)pyridin-2-yl)oxy)pyridin-2-yl)-1,4-diazepan-1-yl)propanoic acid], in assay [1], the “furin enzyme pIC50” value was 10.7. In addition, the EC50 in assay [2] was 158 nM.
The like results for `CC(=O)NCC1CCN(Cc2cc(Oc3ccc(N4CCN(CCC(=O)O)C(C)(C)C4)nc3)nc(-c3cc(Cl)cc(Cl)c3)c2)CC1` [Example 191, 3-(4-(5-((4-((4-(acetamidomethyl)piperidin-1-yl)methyl)-6-(3,5-dichlorophenyl)pyridin-2-yl)oxy)pyridin-2-yl)-2,2-dimethylpiperazin-1-yl)propanoic acid] were, in that order, 9.8 and 39.8 nM.
On to `CC(=O)NCC1CCN(Cc2cc(Oc3ccc(N4CCCNCC4)nc3)nc(-c3cc(Cl)cc(Cl)c3)c2)CC1` [Example 192, N-((1-((2-((6-(1,4-diazepan-1-yl)pyridin-3-yl)oxy)-6-(3,5-dichlorophenyl)pyridin-4-yl)methyl)piperidin-4-yl)methyl)acetamide], for which the “furin enzyme pIC50” value in assay [1] was determined as 10.4. In assay [2], the EC50 was 15.8 nM.
The like results for `CNC1CCN(c2ccc(Oc3cc(CN4CCC(CNC(C)=O)CC4)cc(-c4cc(Cl)cc(Cl)c4)n3)cn2)CC1` [Example 193, N-((1-((2-(3,5-dichlorophenyl)-6-((6-(4-(methylamino)piperidin-1-yl)pyridin-3-yl)oxy)pyridin-4-yl)methyl)piperidin-4-yl)methyl)acetamide] were, in that order, 9 and 3.16 nM.
Consider `CC(=O)NCC1CCN(Cc2cc(Oc3ccc(N4CC5CNCC5C4)nc3)nc(-c3cc(Cl)cc(Cl)c3)c2)CC1` (centres unmarked) [Example 194, N-((1-((2-(3,5-dichlorophenyl)-6-((6-(hexahydropyrrolo[3,4-c]pyrrol-2(1H)-yl)pyridin-3-yl)oxy)pyridin-4-yl)methyl)piperidin-4-yl)methyl)acetamide], for which, in assay [1], the “furin enzyme pIC50” value is listed as 9.1. In addition, the EC50 in assay [2] was 3.16 nM.
The like results for `CC(=O)NCC1CCN(Cc2cc(Oc3ccc(N4CCNC(CO)C4)nc3)nc(-c3cc(Cl)cc(Cl)c3)c2)CC1` (centres unmarked) [Example 195, N-((1-((2-(3,5-dichlorophenyl)-6-((6-(3-(hydroxymethyl)piperazin-1-yl)pyridin-3-yl)oxy)pyridin-4-yl)methyl)piperidin-4-yl)methyl)acetamide] were, in that order, 9.2 and 1 nM.
The like results for `CC(=O)NCC1CCN(Cc2cc(Oc3ccc(N4CCNC(C)(C)C4)nc3)nc(-c3cc(Cl)cc(Cl)c3)c2)CC1` [Example 197, N-((1-((2-(3,5-dichlorophenyl)-6-((6-(3,3-dimethylpiperazin-1-yl)pyridin-3-yl)oxy)pyridin-4-yl)methyl)piperidin-4-yl)methyl)acetamide] were, in that order, 9.2 and 2 nM.
Take `CC(=O)NCC1CCN(Cc2cc(Oc3ccc(N4CCC(N)C(C)(C)C4)nc3)nc(-c3cc(Cl)cc(Cl)c3)c2)CC1` (centres unmarked) [Example 198, N-((1-((2-((6-(4-amino-3,3-dimethylpiperidin-1-yl)pyridin-3-yl)oxy)-6-(3,5-dichlorophenyl)pyridin-4-yl)methyl)piperidin-4-yl)methyl)acetamide]: the “furin enzyme pIC50” value in assay [1] is listed as 9.3. Further, the EC50 in assay [2] is 2 nM.
Regarding `CC(=O)NCC1CCN(Cc2cc(Oc3ccc(N4CCC5(CCNC5)C4)nc3)nc(-c3cc(Cl)cc(Cl)c3)c2)CC1` (centres unmarked) [Example 199, N-((1-((2-((6-(2,7-diazaspiro[4.4]nonan-2-yl)pyridin-3-yl)oxy)-6-(3,5-dichlorophenyl)pyridin-4-yl)methyl)piperidin-4-yl)methyl)acetamide], in assay [1], the “furin enzyme pIC50” value was found to be 9.2. Also, the EC50 in assay [2] is 5.01 nM.
With `CC(=O)NCC1CCN(Cc2cc(Oc3ccc(N4CCN(C)CC4)nc3)nc(-c3cc(Cl)cc(Cl)c3)c2)CC1` [Example 200, N-((1-((2-(3,5-dichlorophenyl)-6-((6-(4-methylpiperazin-1-yl)pyridin-3-yl)oxy)pyridin-4-yl)methyl)piperidin-4-yl)methyl)acetamide], the “furin enzyme pIC50” value in assay [1] amounted to 9.1. Also, the EC50 in assay [2] is 0.501 nM.
In the case of `CNCc1cc(Oc2ccc(N3CC4CNCC4C3)nc2)cc(-c2cc(Cl)cc(Cl)c2)c1` (centres unmarked) [Example 201, 1-(3′,5′-dichloro-5-((6-(hexahydropyrrolo[3,4-c]pyrrol-2(1H)-yl)pyridin-3-yl)oxy)-[1,1′-biphenyl]-3-yl)-N-methylmethanamine], in assay [1], the “furin enzyme pIC50” value was 9.4. The EC50 in assay [2] is 20 nM.
In the case of `CNCc1cc(Oc2ccc(N3C[C@@H]4C[C@H]3CN4)nc2)cc(-c2cc(Cl)cc(Cl)c2)c1` [Example 202, 1-(5-((6-((1S,4S)-2,5-diazabicyclo[2.2.1]heptan-2-yl)pyridin-3-yl)oxy)-3′,5′-dichloro-[1,1′-biphenyl]-3-yl)-N-methylmethanamine], in assay [1], the “furin enzyme pIC50” value is 8.6. Also, the EC50 in assay [2] is 39.8 nM.
Turning to `CN1C[C@@H]2C[C@H]1CN2c1ccc(Oc2cc(CN3CCC(CC(=O)O)CC3)cc(-c3cc(Cl)cc(Cl)c3)n2)cn1` [Example 203, 2-(1-((2-(3,5-dichlorophenyl)-6-((6-((1S,4S)-5-methyl-2,5-diazabicyclo[2.2.1]heptan-2-yl)pyridin-3-yl)oxy)pyridin-4-yl)methyl)piperidin-4-yl)acetic acid], the “furin enzyme pIC50” value in assay [1] came out at 8.7. The EC50 in assay [2] is 12.6 nM.
`CC(CCN1CCN(c2ncc(Oc3cc(CN4CCC(CC(=O)O)CC4)cc(-c4cc(Cl)cc(Cl)c4)n3)cn2)CC1)[S+](C)[O-]` (centres unmarked) [Example 204, 2-(1-((2-(3,5-Dichlorophenyl)-6-((2-(4-(3-(methylsulfinyl)butyl)piperazin-1-yl)pyrimidin-5-yl)oxy)pyridin-4-yl)methyl)piperidin-4-yl)acetic acid]: the “furin enzyme pIC50” value in assay [1] is listed as 8.7. Also, the EC50 in assay [2] is 31.6 nM.
The like results for `CC(CCN1CCN(c2ncc(Oc3cc(CN4CCC(CC(=O)O)CC4)cc(-c4cc(Cl)cc(Cl)c4)n3)cn2)CC1)S(C)(=O)=O` (centres unmarked) [Example 205, 2-(1-((2-(3,5-Dichlorophenyl)-6-((2-(4-(3-(methylsulfonyl)butyl)piperazin-1-yl)pyrimidin-5-yl)oxy)pyridin-4-yl)methyl)piperidin-4-yl)acetic acid] were, in that order, 8.6 and 15.8 nM.
In the case of `CNC(=O)OCC1CCN(Cc2cc(Oc3cnc(N4CCN(C(C)CCC(=O)O)CC4)nc3)nc(-c3cc(Cl)cc(Cl)c3)c2)CC1` (centres unmarked) [Example 208], the IC50 in assay [1] (read-out: furin enzyme pIC50 (converted)) was 0.0126 nM. Also, the EC50 in assay [2] is 10 nM.
Take `CNC(=O)OCC1CCN(Cc2cc(Oc3cnc(N4CCN(C(C)CCO)CC4)nc3)nc(-c3cc(Cl)cc(Cl)c3)c2)CC1` (centres unmarked) [Example 209, (1-((2-(3,5-dichlorophenyl)-6-((2-(4-(4-hydroxybutan-2-yl)piperazin-1-yl)pyrimidin-5-yl)oxy)pyridin-4-yl)methyl)piperidin-4-yl)methyl methylcarbamate]: the “furin enzyme pIC50” value in assay [1] is 9.6. For the same compound, the EC50 in assay [2] was 2.51 nM.
As to `CNC(=O)OCC1CCN(Cc2cc(Oc3cnc(N4CCN(CCCS(C)(=O)=O)CC4)nc3)nc(-c3cc(Cl)cc(Cl)c3)c2)CC1` [Example 210, (1-((2-(3,5-dichlorophenyl)-6-((2-(4-(3-(methylsulfonyl)propyl)piperazin-1-yl)pyrimidin-5-yl)oxy)pyridin-4-yl)methyl)piperidin-4-yl)methyl methylcarbamate], the “furin enzyme pIC50” value in assay [1] came to 8.7. Also, the EC50 in assay [2] is 3.98 nM.
Turning to `CNC(=O)OCC1CCN(Cc2cc(Oc3cnc(N4CCN(C5CC(C(=O)O)C5)CC4)nc3)nc(-c3cc(Cl)cc(Cl)c3)c2)CC1` (centres unmarked) [Example 211, 3-(4-(5-((6-(3,5-dichlorophenyl)-4-((4-(((methylcarbamoyl)oxy)methyl)piperidin-1-yl)methyl)pyridin-2-yl)oxy)pyrimidin-2-yl)piperazin-1-yl)cyclobutanecarboxylic acid], in assay [1], the “furin enzyme pIC50” value is recorded as 10.1. Besides, in assay [2], the EC50 was 25.1 nM.
The like results for `CN1CCN(c2ccc(Oc3cc(CN4CCC(CC(=O)O)CC4)cc(-c4cc(Cl)cc(Cl)c4)n3)cn2)CC1` [Example 212, 2-(1-((2-(3,5-dichlorophenyl)-6-((6-(4-methylpiperazin-1-yl)pyridin-3-yl)oxy)pyridin-4-yl)methyl)piperidin-4-yl)acetic acid] were, in that order, 9 and 31.6 nM.
